Assay results taken from US20240270740A1, “INHIBITORS OF CYCLIC GMP-AMP SYNTHASE AND USES THEREOF” (Ventus Therapeutics U.S., Inc., priority 2022, published 2024).

The molecules below were run against hcGAS (Homo sapiens, UniProt Q8N884) (assay: hcGAS Kinase-Glo assay (ATP depletion)). Conditions: 40 nM hcGAS, 100 μM ATP, 100 μM GTP, 25 nM dsDNA, 3 h incubation.
Type: biochemical
Description: cGAS catalyzes the cyclization of ATP and GTP to produce cGAMP, which is the activating ligand of STING. Human cGAS (hcGAS) inhibition can thus be quantified by measuring how much cGAMP is formed either indirectly, by monitoring ATP-depletion as in the hcGAS Kinase-Glo assay (as described below), or directly, such as using the hcGAS LCMS assay (as described below).
(i) hcGAS Kinase-Glo Assay
Compounds were tested for their human-cGAS […] inhibition activity using the methodology reported in Lama et al., “Development of human cGAS-specific small molecule inhibitors for repression of dsDNA-triggered interferon expression”, Nature Communications 10, Article number: 2261 (2019), with slight changes to some conditions as shown in Table B.
The results of the assay, expressed in IC50 values, are reported in Table D with the following designations: A represents an IC50 value<0.01 μM; B represents an IC50 value≥0.01 μM and <0.03 μM; C represents an IC50 value≥0.03 μM and <0.1 μM; D represents an IC50 value≥0.1.

hcGAS, sequence (Q8N884 whole entry): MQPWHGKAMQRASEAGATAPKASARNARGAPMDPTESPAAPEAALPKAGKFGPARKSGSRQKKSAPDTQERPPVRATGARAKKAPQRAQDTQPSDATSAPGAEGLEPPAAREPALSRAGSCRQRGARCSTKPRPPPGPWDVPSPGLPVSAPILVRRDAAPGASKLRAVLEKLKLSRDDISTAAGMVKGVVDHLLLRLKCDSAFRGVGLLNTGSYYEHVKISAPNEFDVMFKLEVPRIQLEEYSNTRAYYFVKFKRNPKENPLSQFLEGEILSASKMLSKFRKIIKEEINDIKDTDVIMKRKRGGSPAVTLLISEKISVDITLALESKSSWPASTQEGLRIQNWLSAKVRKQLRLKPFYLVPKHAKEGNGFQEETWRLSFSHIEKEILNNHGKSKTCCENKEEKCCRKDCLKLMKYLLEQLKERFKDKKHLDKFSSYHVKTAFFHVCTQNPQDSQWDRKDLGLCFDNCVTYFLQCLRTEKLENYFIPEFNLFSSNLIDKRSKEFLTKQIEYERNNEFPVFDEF

Structure (SMILES)	IC50 [nM]
CNc1cc(C(=O)Nc2nnc(-n3nccc3C)s2)oc(=O)c1OC [Compound 105, 3-methoxy-N-(5-(5-methyl-1H-pyrazol-1-yl)-1,3,4-thiadiazol-2-yl)-4-(methylamino)-2-oxo-2H-pyran-6-carboxamide]	30 to 100
COCCNc1cc(C(=O)Nc2nnc(-c3c(C)csc3C#N)s2)oc(=O)c1OC [Compound 137, N-(5-(2-cyano-4-methylthiophen-3-yl)-1,3,4-thiadiazol-2-yl)-3-methoxy-4-((2-methoxyethyl)amino)-2-oxo-2H-pyran-6-carboxamide]	≥ 100
COc1c(N2CC[C@@H](CO)C2)cc(C(=O)Nc2nnc(-n3nccc3C)s2)oc1=O [Compound 88, (R)-4-(3-(hydroxymethyl)pyrrolidin-1-yl)-3-methoxy-N-(5-(5-methyl-1H-pyrazol-1-yl)-1,3,4-thiadiazol-2-yl)-2-oxo-2H-pyran-6-carboxamide]	10 to 30
COCCNc1cc(C(=O)Nc2nnc(-n3nccc3C(F)F)s2)oc(=O)c1OC [Compound 144, N-(5-(5-(difluoromethyl)-1H-pyrazol-1-yl)-1,3,4-thiadiazol-2-yl)-3-methoxy-4-((2-methoxyethyl)amino)-2-oxo-2H-pyran-6-carboxamide]	10 to 30
COc1c(N[C@@H]2CC[C@H]2O)cc(C(=O)Nc2nnc(-n3nccc3C)s2)oc1=O (racemic) [Rac-37, 4-(((1R,2R)-2-hydroxycyclobutyl)amino)-3-methoxy-N-(5-(5-methyl-1H-pyrazol-1-yl)-1,3,4-thiadiazol-2-yl)-2-oxo-2H-pyran-6-carboxamide]	10 to 30
COc1c(N[C@H]2CC[C@H](O)CC2)cc(C(=O)Nc2nnc(-n3nccc3C)s2)oc1=O [Compound 217]	10 to 30
COCCNc1cc(C(=O)Nc2nnc(-c3sncc3Cl)s2)oc(=O)c1OC [Compound 139, N-(5-(4-chloroisothiazol-5-yl)-1,3,4-thiadiazol-2-yl)-3-methoxy-4-((2-methoxyethyl)amino)-2-oxo-2H-pyran-6-carboxamide]	30 to 100
COc1c(NCCN(C)C)cc(C(=O)Nc2nnc(-n3nccc3C)s2)oc1=O [Compound 181, 4-((2-(dimethylamino)ethyl)amino)-3-methoxy-N-(5-(5-methyl-1H-pyrazol-1-yl)-1,3,4-thiadiazol-2-yl)-2-oxo-2H-pyran-6-carboxamide]	≥ 100
CNCCNc1cc(C(=O)Nc2nnc(-n3nccc3C)s2)oc(=O)c1OC [Compound 204, 3-methoxy-N-(5-(5-methyl-1H-pyrazol-1-yl)-1,3,4-thiadiazol-2-yl)-4-((2-(methylamino)ethyl)amino)-2-oxo-2H-pyran-6-carboxamide]	≥ 100
COCCNc1cc(C(=O)Nc2nnc(-n3nccc3Cl)s2)oc(=O)c1OC [Compound 148, N-[5-(5-chloropyrazol-1-yl)-1,3,4-thiadiazol-2-yl]-5-methoxy-4-[(2-methoxyethyl)amino]-6-oxopyran-2-carboxamide]	≥ 100
COc1c(N2CCOCC2)cc(C(=O)Nc2nnc(-n3nccc3C)s2)oc1=O [Compound 186, 3-methoxy-N-(5-(5-methyl-1H-pyrazol-1-yl)-1,3,4-thiadiazol-2-yl)-4-morpholino-2-oxo-2H-pyran-6-carboxamide]	30 to 100
COc1c(N2CCC(CO)CC2)cc(C(=O)Nc2nnc(-n3nccc3C)s2)oc1=O [Compound 12, 4-(4-(hydroxymethyl)piperidin-1-yl)-3-methoxy-N-(5-(5-methyl-1H-pyrazol-1-yl)-1,3,4-thiadiazol-2-yl)-2-oxo-2H-pyran-6-carboxamide]	10 to 30
COc1c(NC23CC(CO)(C2)C3)cc(C(=O)Nc2nnc(-n3nccc3C)s2)oc1=O [Compound 218, 4-((3-(hydroxymethyl)bicyclo[1.1.1]pentan-1-yl)amino)-3-methoxy-N-(5-(5-methyl-1H-pyrazol-1-yl)-1,3,4-thiadiazol-2-yl)-2-oxo-2H-pyran-6-carboxamide]	10 to 30
COCC1CCN(c2cc(C(=O)Nc3nnc(-n4nccc4C)s3)oc(=O)c2OC)CC1 [Compound 2, 3-methoxy-4-(4-(methoxymethyl)piperidin-1-yl)-N-(5-(5-methyl-1H-pyrazol-1-yl)-1,3,4-thiadiazol-2-yl)-2-oxo-2H-pyran-6-carboxamide]	10 to 30
COCCNc1cc(C(=O)Nc2nnc(-n3ncc(F)c3Cl)s2)oc(=O)c1OC [Compound 134, N-(5-(5-chloro-4-fluoro-1H-pyrazol-1-yl)-1,3,4-thiadiazol-2-yl)-5-methoxy-4-(2-methoxyethylamino)-6-oxo-6H-pyran-2-carboxamide]	30 to 100
COc1c(N[C@H]2COC[C@H]2O)cc(C(=O)Nc2nnc(-n3nccc3C)s2)oc1=O [Compound 113, 4-(((3S,4S)-4-hydroxytetrahydrofuran-3-yl)amino)-3-methoxy-N-(5-(5-methyl-1H-pyrazol-1-yl)-1,3,4-thiadiazol-2-yl)-2-oxo-2H-pyran-6-carboxamide]	10 to 30
COCC12CC(Nc3cc(C(=O)Nc4nnc(-n5nccc5C)s4)oc(=O)c3OC)(C1)C2 [Compound 44, 3-methoxy-4-((3-(methoxymethyl)bicyclo[1.1.1]pentan-1-yl)amino)-N-(5-(5-methyl-1H-pyrazol-1-yl)-1,3,4-thiadiazol-2-yl)-2-oxo-2H-pyran-6-carboxamide]	30 to 100
COc1c(NC2COC2)cc(C(=O)Nc2nnc(-n3nccc3C)s2)oc1=O [Compound 104, 3-methoxy-N-(5-(5-methyl-1H-pyrazol-1-yl)-1,3,4-thiadiazol-2-yl)-4-(oxetan-3-ylamino)-2-oxo-2H-pyran-6-carboxamide]	30 to 100
COc1c(N[C@H]2C[C@@H](OC)C2)cc(C(=O)Nc2nnc(-n3nccc3C)s2)oc1=O [Compound 9, 3-methoxy-4-(((1,3-cis)-3-methoxycyclobutyl)amino)-N-(5-(5-methyl-1H-pyrazol-1-yl)-1,3,4-thiadiazol-2-yl)-2-oxo-2H-pyran-6-carboxamide]	30 to 100
COc1c(N2CCC(OC)CC2)cc(C(=O)Nc2nnc(-n3nccc3C)s2)oc1=O [Compound 19, 3-methoxy-4-(4-methoxypiperidin-1-yl)-N-(5-(5-methyl-1H-pyrazol-1-yl)-1,3,4-thiadiazol-2-yl)-2-oxo-2H-pyran-6-carboxamide]	10 to 30
COc1c(N2CCC[C@H]2CO)cc(C(=O)Nc2nnc(-n3nccc3C)s2)oc1=O [Compound 40, (S)-4-(2-(hydroxymethyl)pyrrolidin-1-yl)-3-methoxy-N-(5-(5-methyl-1H-pyrazol-1-yl)-1,3,4-thiadiazol-2-yl)-2-oxo-2H-pyran-6-carboxamide]	10 to 30
COc1c(NC2CC2)cc(C(=O)Nc2nnc(-n3nccc3C)s2)oc1=O [Compound 180, 4-(cyclopropylamino)-5-methoxy-N-[5-(5-methylpyrazol-1-yl)-1,3,4-thiadiazol-2-yl]-6-oxopyran-2-carboxamide]	30 to 100
COCCCNc1cc(C(=O)Nc2nnc(-n3nccc3C)s2)oc(=O)c1OC [Compound 32, 5-methoxy-4-(3-methoxypropylamino)-N-(5-(5-methyl-1H-pyrazol-1-yl)-1,3,4-thiadiazol-2-yl)-6-oxo-6H-pyran-2-carboxamide]	30 to 100
COc1c(N[C@H]2CCC[C@@H]2O)cc(C(=O)Nc2nnc(-n3nccc3C)s2)oc1=O (racemic) [Rac-15, 4-(((1S,2S)-2-hydroxycyclopentyl)amino)-3-methoxy-N-(5-(5-methyl-1H-pyrazol-1-yl)-1,3,4-thiadiazol-2-yl)-2-oxo-2H-pyran-6-carboxamide]	30 to 100
COc1c(N2CC[C@H](CO)C2)cc(C(=O)Nc2nnc(-n3nccc3C)s2)oc1=O [Compound 58, (S)-4-(3-(hydroxymethyl)pyrrolidin-1-yl)-3-methoxy-N-(5-(5-methyl-1H-pyrazol-1-yl)-1,3,4-thiadiazol-2-yl)-2-oxo-2H-pyran-6-carboxamide]	10 to 30
COC[C@@H]1CCCN1c1cc(C(=O)Nc2nnc(-n3nccc3C)s2)oc(=O)c1OC [Compound 39, (S)-3-methoxy-4-(2-(methoxymethyl)pyrrolidin-1-yl)-N-(5-(5-methyl-1H-pyrazol-1-yl)-1,3,4-thiadiazol-2-yl)-2-oxo-2H-pyran-6-carboxamide]	10 to 30
COc1c(N[C@H]2CC[C@@H](OC)CC2)cc(C(=O)Nc2nnc(-n3nccc3C)s2)oc1=O [Compound 219, 3-methoxy-4-((1,4-cis-4-methoxycyclohexyl)amino)-N-(5-(5-methyl-1H-pyrazol-1-yl)-1,3,4-thiadiazol-2-yl)-2-oxo-2H-pyran-6-carboxamide]	10 to 30
COc1c(NCCO)cc(C(=O)Nc2nnc(-c3sccc3Cl)s2)oc1=O [Compound 147, N-[5-(3-chlorothiophen-2-yl)-1,3,4-thiadiazol-2-yl]-4-[(2-hydroxyethyl)amino]-5-methoxy-6-oxopyran-2-carboxamide]	≥ 100
COc1c(NC23CC(C#N)(C2)C3)cc(C(=O)Nc2nnc(-n3nccc3C)s2)oc1=O [Compound 45, 4-((3-cyanobicyclo[1.1.1]pentan-1-yl)amino)-3-methoxy-N-(5-(5-methyl-1H-pyrazol-1-yl)-1,3,4-thiadiazol-2-yl)-2-oxo-2H-pyran-6-carboxamide]	10 to 30
COc1c(NCC(F)F)cc(C(=O)Nc2nnc(-n3nccc3C)s2)oc1=O [Compound 89, 4-((2,2-difluoroethyl)amino)-3-methoxy-N-(5-(5-methyl-1H-pyrazol-1-yl)-1,3,4-thiadiazol-2-yl)-2-oxo-2H-pyran-6-carboxamide]	10 to 30
